Each structure is given as a SMILES string.

The text below walks through data of patent US9365541B2, “Compounds for use in the treatment of parasitic diseases” (IRBM—SCIENCE PARK S.P.A., priority 2012, dated 2016).

Test [1] has as its target T1, human HDAC1 (Homo sapiens, UniProt Q13547).
T1 construct: made in house; host or cells: HeLa (ATCC CCL-2), mammalian cells
Briefly: Homo sapiens HDAC1 inhibition assay (Fluor-de-Lys, enzymatic). It is filed as biochemical. Conditions: human HDAC enzymatic assay; read-out: hHDAC IC50. In a few lines:
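Fluorogenic deacetylation read-out: trypsin developer, supplemented with 2 μM final TSA as stop, releases fluorophore from deacetylated substrate.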

The subject of test [2] is Plasmodium falciparum 3D7. Briefly: P. falciparum growth inhibition assay (Pf-LDH). It is filed as cell-based. Conditions: Plasmodium falciparum, Erythrocyte; P. falciparum 3D7 infected erythrocytes, 72 h incubation, PfLDH readout. Summed up:
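Compounds were tested against 72 h cultures of the 3D7 strain (0.25% parasitemia, 2% hematocrit, 37° C, low-oxygen gas). Parasite growth was quantified as lactate dehydrogenase activity via NBT reduction, absorbance 650 nm, after freezing and thawing.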

T1 sequence (Q13547 whole entry): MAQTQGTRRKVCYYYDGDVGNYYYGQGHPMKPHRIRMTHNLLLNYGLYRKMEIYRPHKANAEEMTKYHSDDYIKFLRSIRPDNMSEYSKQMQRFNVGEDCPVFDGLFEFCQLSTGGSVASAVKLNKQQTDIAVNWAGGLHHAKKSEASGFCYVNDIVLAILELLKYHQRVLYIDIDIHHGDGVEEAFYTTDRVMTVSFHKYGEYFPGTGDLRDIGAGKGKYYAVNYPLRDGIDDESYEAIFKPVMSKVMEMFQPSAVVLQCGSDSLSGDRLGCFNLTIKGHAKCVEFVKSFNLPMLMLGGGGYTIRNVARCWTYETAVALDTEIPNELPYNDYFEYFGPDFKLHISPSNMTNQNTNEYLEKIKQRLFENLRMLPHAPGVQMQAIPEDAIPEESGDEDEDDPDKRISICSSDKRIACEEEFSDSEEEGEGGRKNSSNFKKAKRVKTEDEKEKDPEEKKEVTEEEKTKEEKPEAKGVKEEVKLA

What is called IC50 is the concentration needed to halve the response being measured. A word on the EC50: it is the concentration that produces a half-maximal response. With `CNC(=O)CCCCC[C@H](NC(=O)C1CCC1(F)F)c1ncc(-c2ccc(-c3ccn(C)n3)cc2)[nH]1` (stereo partly drawn) [Entry 91, 2,2-difluoro-N-((S)-1-(5-(4-(1-methyl-1H-pyrazol-3-yl)phenyl)-1H-imidazol-2-yl)-7-(methylamino)-7-oxo-heptyl)cyclobutane-carboxamide], the half-maximal inhibitory concentration (IC50) in test [1] is more than 5 µM. Further, the EC50 in test [2] is more than 5 µM.

On to `CNC(=O)CCCCC[C@H](NC(=O)CC1=CSC2=NCCCN12)c1ncc(-c2ccc(-c3ccn(C)n3)cc2)[nH]1` [Entry 92, (S)-7-(2-(6,7-dihydro-5H-thiazolo[3,2-a]pyrimidin-3-yl)acetamido)-N-methyl-7-(5-(4-(1-methyl-1H-pyrazol-3-yl)phenyl)-1H-imidazol-2-yl)heptanamide], for which the IC50 in test [1] is 1 to 5 µM. In addition, in test [2], the half-maximal effective concentration (EC50) was more than 5 µM.

`CNC(=O)CCCCC[C@H](NC(=O)OCc1ccccc1)c1ncc(-c2ccc3ccncc3c2)[nH]1` [Entry 93, (S)-benzyl (1-(5-(isoquinolin-7-yl)-1H-imidazol-2-yl)-7-(methylamino)-7-oxoheptyl)carbamate]: in test [1], the IC50 is less than 1 µM. The compound further displayed an EC50 in test [2] of less than 1 µM.

On to `CCc1nc2ccccc2n1CCC(=O)N[C@@H](CCCCCC(=O)NC)c1nnc(-c2ccc3ccccc3c2)o1` [Entry 94, (S)-7-(3-(2-ethyl-1H-benzo[d]imidazol-1-yl)propanamido)-N-methyl-7-(5-(naphthalen-2-yl)-1,3,4-oxadiazol-2-yl)heptanamide], for which, in test [1], the half-maximal inhibitory concentration (IC50) fell in the range of 1 to 5 µM. The compound further returned an EC50 in test [2] of 1 to 5 µM.

Consider `CNC(=O)CCCCC[C@H](NC(=O)c1cncs1)c1ncc(-c2ccc3ccccc3c2)[nH]1` [Entry 95, (S)-N-(7-(methylamino)-1-(5-(naphthalen-2-yl)-1H-imidazol-2-yl)-7-oxo-heptyl)thiazole-5-carboxamide], for which the 50% inhibitory concentration (IC50) in test [1] was less than 1 µM. The EC50 in test [2] is less than 1 µM.

`CNC(=O)CCCCC[C@H](NC(=O)c1cncs1)c1ncc(-c2cc3ccccc3cc2OC)[nH]1` [Entry 97, (S)-N-(1-(5-(3-methoxynaphthalen-2-yl)-1H-imidazol-2-yl)-7-(methylamino)-7-oxoheptyl)thiazole-5-carboxamide]: the IC50 in test [1] was less than 1 µM. In test [2], this compound registered a concentration giving a half-maximal response (EC50) of less than 1 µM.

On to `CNC(=O)CCCCC[C@H](NC(=O)C1CN(C)C1)c1ncc(-c2cc3ccccc3nc2OC)[nH]1` [Entry 98, (S)-N-(1-(5-(2-methoxyquinolin-3-yl)-1H-imidazol-2-yl)-7-(methylamino)-7-oxoheptyl)-1-methylazetidine-3-carboxamide], for which the IC50 in test [1] lay in the range of 1 to 5 µM. Moreover, the EC50 in test [2] was in the range of 1 to 5 µM.

For `CNC(=O)CCCCC[C@H](NC(=O)CCN1CCCCC1)c1ncc(-c2cc3ccccc3nc2OC)[nH]1` [Entry 99], in test [1], the IC50 was less than 1 µM. The compound further had an EC50 in test [2] of 1 to 5 µM.

For the compound `CNC(=O)CCCCC[C@H](NC(=O)C12CC3CC(CC(C3)C1)C2)c1ncc(-c2ccc(C(F)(F)F)cc2)[nH]1` [Entry 100], in test [1], the IC50 is more than 5 µM. The same compound displayed an EC50 in test [2] of 1 to 5 µM.

For the compound `CNC(=O)CCCCC[C@H](NC(=O)CCN1CCCCC1)c1ncc(-c2ccc(C(F)(F)F)cc2)[nH]1` [Entry 101, (S)-N-methyl-7-(3-(piperidin-1-yl)propanamido)-7-(5-(4-(trifluoro-methyl)phenyl)-1H-imidazol-2-yl)heptanamide], the IC50 in test [1] is more than 5 µM. The compound also gave a 50% effective concentration (EC50) in test [2] of 1 to 5 µM.

As to `CNC(=O)CCCCC[C@H](NC(=O)c1nc[nH]n1)c1ncc(-c2cc3ccccc3nc2OC)[nH]1` [Entry 102, (S)-N-(1-(5-(2-methoxyquinolin-3-yl)-1H-imidazol-2-yl)-7-(methylamino)-7-oxoheptyl)-1H-1,2,4-triazole-3-carboxamide], the IC50 in test [1] was more than 5 µM. This compound had a concentration giving a half-maximal response (EC50) in test [2] of more than 5 µM.

`CNC(=O)CCCCC[C@H](NC(=O)C(C)n1cccn1)c1ncc(-c2cc3ccccc3nc2OC)[nH]1` (some centres unmarked) [Entry 103]: in test [1], the IC50 was more than 5 µM. Besides, the half-maximal effective concentration (EC50) in test [2] is 1 to 5 µM.

For `CNC(=O)CCCCC[C@H](NC(=O)[C@@H]1CCCN1C)c1ncc(-c2cc3ccccc3nc2OC)[nH]1` [Entry 104, (S)-N-((S)-1-(5-(2-methoxyquinolin-3-yl)-1H-imidazol-2-yl)-7-(methylamino)-7-oxoheptyl)-1-methylpyrrolidine-2-carboxamide], the concentration for half-maximal inhibition (IC50) in test [1] is more than 5 µM. This compound yielded an EC50 in test [2] of more than 5 µM.

Take `CNC(=O)CCCCC[C@H](NC(=O)c1cncs1)c1ncc(-c2ccc3cc(OC)ncc3c2)[nH]1` [Entry 105, (S)-N-(1-(5-(3-methoxyisoquinolin-7-yl)-1H-imidazol-2-yl)-7-(methylamino)-7-oxoheptyl)thiazole-5-carboxamide]: the IC50 in test [1] is less than 1 µM. Also, the EC50 in test [2] was less than 1 µM.

Consider `CNC(=O)CCCCC[C@H](NC(=O)Cc1ccccn1)c1ncc(-c2cc3ccccc3nc2OC)[nH]1` [Entry 106], for which the IC50 in test [1] is 1 to 5 µM. In test [2], this compound gave an EC50 of more than 5 µM.

Consider `CNC(=O)CCCCC[C@H](NC(=O)c1cncs1)c1ncc(-c2ccc3nc(OC)ccc3c2)[nH]1` [Entry 107, (S)-N-(1-(5-(2-methoxyquinolin-6-yl)-1H-imidazol-2-yl)-7-(methylamino)-7-oxoheptyl)thiazole-5-carboxamide], for which the IC50 in test [1] is less than 1 µM. This compound showed an EC50 in test [2] of less than 1 µM.

Regarding `CNC(=O)CCCCC[C@H](NC(=O)c1cncs1)c1ncc(-c2ccc(-c3ccccc3)cc2)[nH]1` [Entry 108, (S)-N-(1-(5-([1,1′-biphenyl]-4-yl)-1H-imidazol-2-yl)-7-(methylamino)-7-oxoheptyl)thiazole-5-carboxamide], the IC50 in test [1] is more than 5 µM. In test [2], the EC50 was more than 5 µM.

As for `CNC(=O)CCCCC[C@H](NC(=O)c1cncs1)c1ncc(-c2ccc(-c3cccs3)cc2)[nH]1` [Entry 109, (S)-N-(7-(methylamino)-7-oxo-1-(5-(4-(thiophen-2-yl)phenyl)-1H-imidazol-2-yl)heptyl)thiazole-5-carboxamide], in test [1], the half-inhibitory concentration (IC50) lay in the range of 1 to 5 µM. This compound registered an EC50 in test [2] of 1 to 5 µM.

In the case of `CNC(=O)CCCCC[C@H](NC(=O)Cc1cnc2ccccc2c1)c1ncc(-c2ccc(-n3cccn3)cc2)[nH]1` [Entry 110], the IC50 in test [1] was less than 1 µM. In test [2], this compound came in with an EC50 of 1 to 5 µM.

For `CNC(=O)CCCCC[C@H](NC(=O)C1(F)CCN(C)CC1)c1ncc(-c2ccc3ccncc3c2)[nH]1` [Entry 111, (S)-4-fluoro-N-(1-(5-(isoquinolin-7-yl)-1H-imidazol-2-yl)-7-(methylamino)-7-oxoheptyl)-1-methylpiperidine-4-carboxamide], in test [1], the 50% inhibitory concentration (IC50) was 1 to 5 µM. The EC50 in test [2] was more than 5 µM.

For `CNC(=O)CCCCC[C@H](NC(=O)c1cncs1)c1ncc(-c2ccc3[nH]nnc3c2)[nH]1` [Entry 112, (S)-N-(1-(5-(1H-benzo[d][1,2,3]triazol-5-yl)-1H-imidazol-2-yl)-7-(methylamino)-7-oxoheptyl)thiazole-5-carboxamide], in test [1], the IC50 was more than 5 µM. In test [2], this compound yielded a concentration for a half-maximal effect (EC50) of more than 5 µM.

As for `CNC(=O)CCCCC[C@H](NC(=O)Cc1cnccn1)c1ncc(-c2ccc3ccccc3c2)[nH]1` [Entry 113], the IC50 in test [1] was 1 to 5 µM. The compound also gave an EC50 in test [2] of 1 to 5 µM.

As for `CNC(=O)CCCCC[C@H](NC(=O)c1ccc2cnccc2c1)c1ncc(-c2ccc3ccccc3c2)[nH]1` [Entry 114, (S)-N-(7-(methylamino)-1-(5-(naphthalen-2-yl)-1H-imidazol-2-yl)-7-oxo-heptyl)isoquinoline-6-carboxamide], the IC50 in test [1] fell in the range of 1 to 5 µM. The compound also displayed an EC50 in test [2] of 1 to 5 µM.

Take `CNC(=O)CCCCC[C@H](NC(=O)Cc1n[nH]c(=O)[nH]1)c1ncc(-c2ccc3ccccc3c2)[nH]1` [Entry 115]: the IC50 in test [1] was 1 to 5 µM. The EC50 in test [2] lay within 1 to 5 µM.

In the case of `CNC(=O)CCCCC[C@H](NC(=O)Cn1cnnc1)c1ncc(-c2ccc3ccccc3c2)[nH]1` [Entry 116, (S)-7-(2-(4H-1,2,4-triazol-4-yl)acetamido)-N-methyl-7-(5-(naphthalen-2-yl)-1H-imidazol-2-yl)heptanamide], the IC50 in test [1] lay within 1 to 5 µM. Further, in test [2], the 50% effective concentration (EC50) was 1 to 5 µM.

In the case of `CNC(=O)CCCCC[C@H](NC(=O)c1ccc(-n2cnnn2)cc1)c1ncc(-c2ccc3ccccc3c2)[nH]1` [Entry 117, (S)-N-(7-(methylamino)-1-(5-(naphthalen-2-yl)-1H-imidazol-2-yl)-7-oxoheptyl)-4-(1H-tetrazol-1-yl)benzamide], the IC50 in test [1] is 1 to 5 µM. The same compound returned an EC50 in test [2] of 1 to 5 µM.

Turning to `CNC(=O)CCCCC[C@H](NC(=O)C1CCN(C)CC1)c1ncc(-c2ccc3ccncc3c2)[nH]1` [Entry 118, (S)-N-(1-(5-(isoquinolin-7-yl)-1H-imidazol-2-yl)-7-(methylamino)-7-oxoheptyl)-1-methylpiperidine-4-carboxamide], the half-maximal inhibitory concentration (IC50) in test [1] lay in the range of 1 to 5 µM. The EC50 in test [2] was in the range of 1 to 5 µM.

On to `CNC(=O)CCCCC[C@H](NC(=O)Cn1ccc(C)n1)c1ncc(-c2ccc3ccncc3c2)[nH]1` [Entry 119], for which, in test [1], the IC50 fell in the range of 1 to 5 µM. The compound further displayed an EC50 in test [2] of 1 to 5 µM.

`CNC(=O)CCCCC[C@H](NC(=O)c1cncs1)c1ncc(-c2ccc(-c3ncccn3)cc2)[nH]1` [Entry 120, (S)-N-(7-(methylamino)-7-oxo-1-(5-(4-(pyrimidin-2-yl)phenyl)-1H-imidazol-2-yl)heptyl)thiazole-5-carboxamide]: the IC50 in test [1] lay in the range of 1 to 5 µM. In test [2], this compound showed an EC50 of 1 to 5 µM.

As for `CNC(=O)CCCCC[C@H](NC(=O)C1(C)CCCO1)c1ncc(-c2ccc3ccncc3c2)[nH]1` (stereo partly drawn) [Entry 121, N-((S)-1-(5-(isoquinolin-7-yl)-1H-imidazol-2-yl)-7-(methylamino)-7-oxoheptyl)-2-methyltetrahydrofuran-2-carboxamide], in test [1], the IC50 was more than 5 µM. This compound also yielded an EC50 in test [2] of more than 5 µM.

Turning to `CNC(=O)CCCCC[C@H](NC(=O)CCc1c(C)nc2ncnn2c1C)c1ncc(-c2ccc3ccncc3c2)[nH]1` [Entry 122], the IC50 in test [1] is less than 1 µM. The compound further showed a half-maximal effective concentration (EC50) in test [2] of less than 1 µM.
